These results are taken from US20240415825A1, “COMPOUNDS FOR THE TREATMENT OF MALARIA” (FUNDACIÓ INSTITUT DE BIOENGINYERIA DE CATALUNYA, priority 2021, published 2024).

One data set addresses T1, Aβ40 (Homo sapiens, UniProt P05067).
T1 construct: Amyloid-β peptide fragment 1-40 (Aβ40); purchased GenScript
As to the kind of experiment: In vitro Aβ40 aggregation (ThT fluorescence, TEM). The conditions noted are these: 25 μM Aβ40. It counts as biochemical.

The test system of another data set is P. falciparum 3D7 strain. As to the kind of experiment: Dot blot / Western blot of treated P. falciparum cultures (ubiquitinated proteins, amyloid fibrils). It counts as cell-based, Plasmodium falciparum. As to the method: Cultures of the P. falciparum 3D7 strain were sorbitol synchronized in ring stages, and after 24 h were treated for 90 min with AID-X-2020 concentrations ranging from 33 nM to 33 μM. After that time, cultures were spun down and pellets were washed once with ice-cold PBS supplemented with EDTA-free protease inhibitor cocktail (PIC, Roche; 1 PIC tablet/10 mL PBS). For anti-ubiquitin Western blots, PBS was also supplemented with 20 mM N-ethylmaleimide. […] Protein extracts were quantified with the bicinchoninic acid assay (ThermoFisher Scientific), following the manufacturer's instructions. […]
For Western blots, 15 μg of saponin-extracted proteins were incubated for 5 min at 95° C. diluted in Laemmli solution (0.14 M SDS, 0.125 M tris-HCl, pH 6.8, 20% glycerol, 10% 2-mercaptoethanol, 3 mM bromophenol blue) and resolved by SDS-PAGE in 12% bis-tris acrylamide (Bio-Rad) gels run at 80 V until samples entered the resolving gel and at 120 V afterwards. […] After probing with secondary antibodies, for both dot blot and Western blot membranes, four washes with TBS-Tween and one last wash with TBS were done and peroxidase substrate (ECL Prime Western Blotting Detection Reagent, Amersham Life Science, Inc.) was poured on the membrane and chemiluminescent signal was measured in a LAS 4000 reader (ImageQuant) at different exposure times.
Background: In western blotting, separated proteins are transferred to a membrane and probed.

The subject of data set [1] is P. falciparum cultures. Nature of the data set: Combination assay of AID-X-2020 and artemisinin (isobologram, FIC). It counts as cell-based, Plasmodium falciparum. The conditions noted are these: combined with artemisinin in different ratios. As to the method: For assays of AID-X-2020 and artemisinin, serial dilutions of both compounds were prepared at different concentration ratios (1:0, 0:1, 1:1, 1:2, 2:1, 1:5 and 5:1).
To assess the synergistic effect of AID-X-2020 and artemisinin, IC50 values for each individual compound in the mixtures were calculated as described above and plotted in an isobologram (“x” value=AID-X-2020 IC50 and “y” value=artemisinin IC50). Fractional inhibitory concentration (FIC) values were calculated by dividing the IC50 of one of the compounds in the mixture by the IC50 of the same compound in the 1:0 or 0:1 ratio mixture.

A short description of data set [2]: In vivo toxicity assay in mice. Details: species or system BALB/c mice. As to the method: BALB/c female and male mice (Janvier Laboratories) were maintained with unlimited access to food and water under standard environmental conditions (20-24° C. and 12/12 h light/dark cycle). […] First, the lowest dose was intravenously injected to one female and one male mice. An oxygen stream of 4% isoflurane was used to anesthetize the mice, which were then maintained during the whole procedure (less than 3 minutes) with 2.5% isoflurane.
After the administration, mice were observed and different parameters related to their behavior (lethargy, motility alterations, seizures, coma, automutilation, aggressiveness, vocalizations, stereotyped movements) and physical conditions (pain, respiratory disturbances, tachycardia or bradycardia, dehydration, hair loss, body weight loss, dermatitis, bad hygiene, pruritus, tearing) were followed. If after 48 h no deleterious effects were observed, the following dose was administered to two other male and female mice.

The next data set deals with P. falciparum W2 strain. Nature of the data set: Growth inhibition, chloroquine-resistant W2 strain. The conditions noted are these: Plasmodium falciparum. It counts as cell-based. The text has this:
(§1) P. falciparum parasites of chloroquine-sensitive (3D7 strain) and chloroquine- and artemisinin-resistant strains were processed as described in section 1.1.3 of EXAMPLE 1.
(§2) In particular, the P. falciparum resistant strains were the following: (1) strain W2 MRA-157 (BEI Resources, managed by ATCC) which is chloroquine-resistant; (2) strains 3D7 harboring the K13 mutations associated to artemisinin resistance, either M5791 or R561H (both provided by Dr. David A. Fidock and referenced in Stokes, B. H. et al., 2021); (3) Cam 3.11 strain which is chloroquine and sulfadoxine/pyrimethamine-resistant; and (4) Cam 3.11 strain modified to carry K13 mutations associated to artemisinin-resistant strains, either R561H or R539T, therefore being multiresistant strains. All Cam 3.11 strains (3) and (4) were provided by Dr. David A. Fidock and are referenced in Straimer, J. et al., 2015 and Stokes, B. H. et al., 2021.
(§3) Then, the required amount of AID-X-2020 was added to each well at different concentrations (0.0001, 0.001, 0.01, 1 and 10 μM) and triplicates.

Data set [3] concerns artemisinin-resistant P. falciparum strains (3D7 and Cam 3.11 with K13 mutations). As to the kind of experiment: Growth inhibition, artemisinin-resistant strains. The conditions noted are these: Plasmodium falciparum, 3D7, read-out: IC50 in artemisinin-resistant strains. It counts as cell-based.
Description: as §1, §2, §3

Data set [4] deals with P. falciparum cultures. Nature of the data set: ThT analysis of protein aggregation in live P. falciparum cultures. The conditions noted are these: 90 min with 90 nM, equal protein content. It counts as cell-based, Plasmodium falciparum. As to the method:
After 90 min, 4 h and 30 h, a Percoll purification was done in order to isolate parasitized cells from uninfected RBCs. After Percoll purification, the pellets of late stage parasites and a control non-infected RBC suspension containing the same proportion of cells than the purified cultures were resuspended in 50 μl of lysis buffer (4.5 mg/ml NaCl in water supplemented with EDTA-free protease inhibitor cocktail, PIC, Hoffman-La Roche, Basel, Switzerland; 1 PIC tablet/10 ml water) and incubated overnight, at 4° C. under stirring, with the objective of releasing their inner content. After this time, lysed samples were spun down and the protein content in the supernatant was quantified with the bicinchoninic acid assay (Thermo Fisher Scientific), following the manufacturer's instructions. 30 μg of protein from each supernatant were further diluted with PBS to a final volume of 70 μl and plated on a 96-well black plate in triplicates. ThT fluorescence was measured as described above.

T1 sequence (P05067 672-711 limits assumed, species assumed): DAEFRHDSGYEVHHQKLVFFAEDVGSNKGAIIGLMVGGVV
Description for Aβ40: For the in vitro analysis of As peptide fragment 1-40 (Aβ40) aggregation, 1 mg of Aβ40 (GenScript) was dissolved in 500 μL of 1,1,1,3,3,3-hexafluoro-2-propanol (HFIP, Fluka) under vigorous stirring for 1 h and sonicated for 30 min in a sonication bath. Afterwards, the solution was stirred for 1 h and maintained at 4° C. for 30 min. Aliquots were prepared, HFIP was evaporated under a nitrogen stream for a few seconds and the peptide was stored at −20° C. […] The final sample always contained less than 5% DMSO to avoid interference of this solvent on Aβ40 amyloid fibril formation. Finally, ThT treatment was performed as described above.
25 μM ThT was added to each sample and fluorescence was measured by exciting samples at 440 nm and recording the emission from 465 nm to 600 nm. A blank measurement of each sample was done before adding ThT.
A carbon-coated copper grid was deposited on top of a 50-μL drop of each solution for 30 min. Then, the excess liquid was removed with filter paper and the grid was placed on top of a water drop for 30 s and finally negatively stained for 2 min with 20 μL of 2% uranyl acetate. Samples were observed using a JEM 1010 transmission electron microscope (JEOL Ltd., Japan). Images were acquired using a CCD Orius camera (Gatan, Inc., USA).

As usually defined, the IC50 is the concentration needed to halve the response being measured. With `CCN(CC)c1ccc(/C=C/c2cc[n+](CCCCCCCCCC[n+]3ccc(/C=C/c4ccc(N(CC)CC)cc4)c(C)c3)cc2C)cc1` [AID-X-2020, 1,1′-(decane-1,10-diyl)bis{4-[(E)-4-(diethylamino)styryl]-3-methylpyridin-1-ium} dibromide], at Aβ40, the “inhibition of the aggregation of Aβ40” value is listed as “strong inhibitor”. In addition, the “effect on ubiquitinated proteins” value in the data set on P. falciparum 3D7 strain (90 nM treatment of P. falciparum cultures, along time) is reported as “reduction in ubiquitinated proteins”. In the data set on P. falciparum 3D7 strain (90 min exposure, dot blot), the “concentration inhibiting amyloid fibril formation” value is greater than 3 µM. In addition, the ZFIC values entry in the data set with P. falciparum cultures [1] is recorded as “higher than 1.5”. Further, in data set [2] (female mice), the “dose at which adverse effects start” value is listed as 10 mg/kg. In data set [2] (male mice), the “dose at which toxicity starts being observed” value is listed as 17 mg/kg. Moreover, the figures for the IC50 (in the data set on P. falciparum W2 strain; in data set [3]) were 90 ± 1 nM and 90 to 160 nM, respectively. For the same compound, in the data set on P. falciparum cultures [4], the “ThT fluorescence of culture extracts” value is “reduced emission spectrum”.
